The values that follow come from US11578071B2, “Preparation of pyrazolo[3,4-B]pyridines as antimalarials” (University of Kentucky Research Foundation, priority 2019, dated 2023).

pEC50: −log10 of the molar value.

Series [1] relates to erythrocytes infected with the 3D7 strain. The experiment in a line: FACS Killing Rate Assay. The class given is cell-based, Plasmodium falciparum. Also on record: % Survival at 0 h: concentration or dose not given beside the values. To be noted: for % Survival (24 h) / % Survival (48 h) / % Survival at 0 h: 3D7; for % Survival (24 h): 24 h treatment at 10× IC50; for % Survival (24 h) / % Survival (48 h): mean ± SD of two measurements; for % Survival (48 h): 48 h treatment at 10× IC50; for % Survival at 0 h: treatment time 0 h; for killing profile: in words, compared with chloroquine, pyrimethamine, atovaquone, artesunate. The protocol: After treatment, the compound is removed and the culture is diluted (⅓^rd dilution) using fresh erythrocytes (2% hematocrit) previously labeled with CFDA-SE (carboxylfluorescein diacetate succinimidyl ester, Life Technologies). […] Samples were analyzed using the Attune N×T software package.

The test system of series [2] is P. falciparum 3D7 gametocytes. The experiment in a line: Gametocyte EC50 determination. The class given is cell-based. The following applies: Plasmodium falciparum. The protocol: Asexual cultures of P. falciparum 3D7 parasites were used to seed gametocyte cultures at 1% parasitemia and 4% hematocrit as previously described. Culture medium (RPMI medium with 25 mM HEPES, 50 mg/L hypoxanthine, 2 g/L sodium bicarbonate and 10% human serum) was replaced daily for at least 14 day with all solutions, pipettes and work surfaces treated at 37° C. Typical cultures follow the pattern of asexual parasitemia rising to a peak and crashing at days 4-5, with stage II gametocytes visible at day 7, stage III visible at day 9, stage IV visible at day 11, and stage V visible at day 14 with high levels of exflagellation.
To determine EC50 values, the number of exflagellation centers per field, mean oocyst intensity and prevalence of infection were normalized to the respective DMSO treated control and % inhibition calculated. Tested compounds were prepared as a DMSO solutions from 25 μM to 0.026 μM across 22 points. Percentage inhibition data obtained from each individual parameter was fitted to a four-parameter logistic equation with variable slope using GraphPad Prism 6.07 for which compound concentrations were first transformed to their respective log10 values. The data were then fitted using these transformed values without defining constraints.

Series [3] has as its system P. berghei luciferase sporozoites in HepG2-A16-CD81EGFP cells. Nature of the series: Plasmodium Berghei Luciferase Liver Stage Bioluminescence Assay. In kind it is cell-based. To be noted: in words.
Experimental: HepG2-A16-CD81EGFP cells which were stably transformed to express a GFP-CD81 fusion protein were cultured at 37° C. and 5% CO2 in DMEM supplemented with 10% FBS, 0.29 mg/mL glutamine, 100 units penicillin and 100 μg/mL of streptomycin (Invitrogen, Carlsbad, USA). […] Freshly dissected P. berghei luciferase sporozoites were re-suspended in media and their concentration adjusted to 200 sporozoites/μL. […] After incubation, the plates were assessed by testing the luciferase expression. This was done by removing the media by spinning the inverted plates at 150 g for 1 minute. 2 μL of BrightGlo (Promega) was dispensed with the MicroFlo liquid handler (BioTek) into the emptied 1536 wells. The plates were held for at least 2 minutes with the Bright-Glo reagent in the wells (per manufacturer instructions) for the process to occur. The plates were then loaded and read by an EnVision Multilabel plate reader (PerkinElmer) using a luminescence protocol. IC50 values were obtained using measured bioluminescence intensity and a non-linear variable slope protocol in CDD Vault, an online collaborative drug discovery informatics program.
The subject of another series is HepG2-A16-CD81EGFP cells. Nature of the series: HepG2 Cytotoxicity Bioluminescence Assay. In kind it is cell-based. To be noted: Homo sapiens, 48 h, mean ± SD of two measurements.

A word on the melting point: it is the temperature of the solid-liquid transition. `CCc1ccc(-c2nc3c(c(C)nn3-c3ccccc3)c(-c3ccccc3OC)c2C#N)cc1` [Compound 16, 6-(4-Ethylphenyl)-4-(2-methoxyphenyl)-3-methyl-1-phenyl-1H-pyrazolo[3,4-b]pyridine-5-carbonitrile] displayed a melting point of 196 to 198 °C.
On the same count and under the same terms, for `Cc1nn(-c2ccccc2)c2nc(-c3ccc(Cl)cc3)c(C#N)c(-c3ccccc3O)c12` [Compound 32, 6-(4-chlorophenyl)-4-(2-hydroxyphenyl)-3-methyl-1-phenyl-1H-pyrazolo[3,4-b]pyridine-5-carbonitrile] the value was 281 to 282 °C; for `CCc1ccc(-c2nc3c(c(C)nn3-c3ccccc3)c(-c3ccccc3Br)c2C#N)cc1` [Compound 9, 4-(2-Bromophenyl)-6-(4-ethylphenyl)-3-methyl-1-phenyl-1H-pyrazolo[3,4-b]pyridine-5-carbonitrile], 208 to 209 °C.
Consider `CCN(CC)CCCC(C)Nc1ccnc2cc(Cl)ccc12` (stereo not drawn) [Chloroquine], for which, in series [1], the “% Survival (24 h)” value came out at 18.69 ± 7.34%, the “% Survival (48 h)” value was 9.21 ± 2.08% and the “% Survival at 0 h” value is recorded as 100%.
Compound `Cc1nn(-c2ccccc2)c2nc(-c3ccc(F)cc3)c(C#N)c(-c3ccccc3O)c12` [Compound 31, 6-(4-fluorophenyl)-4-(2-hydroxyphenyl)-3-methyl-1-phenyl-1H-pyrazolo[3,4-b]pyridine-5-carbonitrile] displayed a melting point of 234 to 236 °C.
On the same count and under the same terms, the same measure for `CCc1ccc(-c2nc3c(c(C)nn3-c3ccccc3)c(-c3ccccc3I)c2C#N)cc1` [Compound 8, 6-(4-Ethylphenyl)-4-(2-iodophenyl)-3-methyl-1-phenyl-1H-pyrazolo[3,4-b]pyridine-5-carbonitrile]: 205 to 207 °C.
With `CCc1nc(N)nc(N)c1-c1ccc(Cl)cc1` [Pyrimethamine], in series [1], the “% Survival (24 h)” value worked out at 56.37 ± 2.55%, the “% Survival (48 h)” value is listed as 16.02 ± 4.36% and the “% Survival at 0 h” value turned out to be 100%.
Broadly, the pEC50 is −log10 of the EC50, conventionally taken in molar units. As for `CCc1ccc(-c2nc3c(c(C)nn3-c3ccccc3)c(-c3ccccc3Cl)c2C#N)cc1` [Compound 10, 4-(2-Chlorophenyl)-6-(4-ethylphenyl)-3-methyl-1-phenyl-1H-pyrazolo[3,4-b]pyridine-5-carbonitrile], in series [1], the “% Survival at 0 h” value turned out to be 100%. In series [1], the killing profile entry is listed as “slow killing profile”. The pEC50 in series [2] is less than 4.60; in the series on HepG2-A16-CD81EGFP cells, less than 4.30. In addition, the “potency against the liver stage of the parasite” value in series [3] is “sub-micromolar potency”.
Regarding `CCc1ccc(-c2nc3c(c(C)nn3-c3ccccc3)c(-c3ccccc3F)c2C#N)cc1` [Compound 11, 6-(4-Ethylphenyl)-4-(2-fluorophenyl)-3-methyl-1-phenyl-1H-pyrazolo[3,4-b]pyridine-5-carbonitrile], the melting point was 197 to 199 °C.
The same measure, in the same setting: the same measure for `CCc1ccc(-c2nc3c(c(C)nn3-c3ccccc3)c(-c3ccccc3C(F)(F)F)c2C#N)cc1` [Compound 15, 6-(4-Ethylphenyl)-3-methyl-1-phenyl-4-[2-(trifluoromethyl)phenyl]-1H-pyrazolo[3,4-b]pyridine-5-carbonitrile]: 193 to 195 °C; for `CCc1ccc(-c2nc3c(c(C)nn3-c3ccccc3)c(-c3ccccc3C#N)c2C#N)cc1` [Compound 7, 4-(2-Cyanophenyl)-6-(4-ethylphenyl)-3-methyl-1-phenyl-1H-pyrazolo[3,4-b]pyridine-5-carbonitrile]: 201 to 203 °C.
On the same count and under the same terms, for `Cc1nn(-c2ccccc2)c2nc(-c3ccc(C#N)cc3)c(C#N)c(-c3ccccc3O)c12` [Compound 34, 6-(4-cyanophenyl)-4-(2-hydroxyphenyl)-3-methyl-1-phenyl-1H-pyrazolo[3,4-b]pyridine-5-carbonitrile] the value was 165 to 166 °C.
In the case of `O=C1C(O)=C([C@H]2CC[C@H](c3ccc(Cl)cc3)CC2)C(=O)c2ccccc21` [Atovaquone], in series [1], the “% Survival (24 h)” value was 78.96 ± 3.89%, the “% Survival (48 h)” value worked out at 39.89 ± 4.37% and the “% Survival at 0 h” value is 100%.
`Cc1nn(-c2ccccc2)c2nc(-c3ccc([N+](=O)[O-])cc3)c(C#N)c(-c3ccccc3O)c12` [Compound 35, 4-(2-hydroxyphenyl)-3-methyl-6-(4-nitrophenyl)-1-phenyl-1H-pyrazolo[3,4-b]pyridine-5-carbonitrile] returned a melting point of 257 to 258 °C.
As for `C[C@H]1[C@H](OC(=O)CCC(=O)O)O[C@@H]2O[C@@]3(C)CC[C@H]4[C@H](C)CC[C@@H]1[C@@]24OO3` [Artesunate], in series [1], the “% Survival (24 h)” value worked out at 17.50 ± 3.68%, the “% Survival (48 h)” value is 6.44 ± 0.51% and the “% Survival at 0 h” value is 100%.
Consider `Cc1nn(-c2ccccc2)c2nc(-c3ccc(C(C)(C)C)cc3)c(C#N)c(-c3ccccc3O)c12` [Compound 27, 6-(4-tert-butylphenyl)-4-(2-hydroxyphenyl)-3-methyl-1-phenyl-1H-pyrazolo[3,4-b]pyridine-5-carbonitrile], for which, in series [1], the “% Survival at 0 h” value stood at 100% and the killing profile entry was “moderate killing profile”. Besides, in series [2], the pEC50 is less than 4.60.
`CCc1ccc(-c2nc3c(c(C)nn3-c3ccccc3)c(-c3ccccc3C)c2C#N)cc1` [Compound 12, 6-(4-Ethylphenyl)-3-methyl-4-(2-methylphenyl)-1-phenyl-1H-pyrazolo[3,4-b]pyridine-5-carbonitrile] displayed a melting point of 203 to 204 °C.
Take `CCc1ccc(-c2nc3c(c(C)nn3-c3ccccc3)c(-c3ccccc3OC(F)(F)F)c2C#N)cc1` [Compound 17, 6-(4-Ethylphenyl)-3-methyl-1-phenyl-4-[2-(trifluoromethoxy)phenyl]-1H-pyrazolo[3,4-b]pyridine-5-carbonitrile]: the pEC50 (in series [2]; with HepG2-A16-CD81EGFP cells) was less than 4.60 each time. For the same compound, the “potency against the liver stage of the parasite” value in series [3] is reported as “sub-micromolar potency”.
On to `Cc1nn(-c2ccccc2)c2nc(-c3ccc(C(F)(F)F)cc3)c(C#N)c(-c3ccccc3O)c12` [Compound 30, 4-(2-hydroxyphenyl)-3-methyl-1-phenyl-6-[4-(trifluoromethyl)phenyl]-1H-pyrazolo[3,4-b]pyridine-5-carbonitrile], for which the melting point fell in the range of 254 to 256 °C.
On the same count and under the same terms, for `Cc1nn(-c2ccccc2)c2nc(-c3ccc(I)cc3)c(C#N)c(-c3ccccc3O)c12` [Compound 33, 4-(2-hydroxyphenyl)-6-(4-iodophenyl)-3-methyl-1-phenyl-1H-pyrazolo[3,4-b]pyridine-5-carbonitrile] the value was 289 to 291 °C.
